Data on 1 compound can be found in patent publication US10179761B2, “Compounds, pharmaceutical composition and their use in treating neurodegenerative diseases” (UNIVERSITE DE LILLE 2 DROIT ET SANTE, priority 2014, dated 2019).

Each structure is given as a SMILES string. “Also recorded” adds a separate entry of the source.

One may read the Ki as a measure of affinity in units of concentration, obtained from inhibition or displacement.

The target of assay [1] is σ2 receptors (Homo sapiens (Human), UniProt Q5BJF2). Kind of assay: σ2 binding assay, Jurkat cell membranes, [3H]-DTG in presence of (+)-pentazocine. As to conditions: hydrochloride salts; mean of 2 or 3 independent experiments; Ki from IC50 (Cheng-Prusoff); read-out: Sigma 2 Ki. The procedure: The σ binding assays were performed according to Ganapathy et al. (Ganapathy, M. E.; Prasad, P. D.; Huang, W.; Seth, P.; Leibach, F. H.; Ganapathy, V. Molecular and ligand-binding characterization of the sigma-receptor in the Jurkat human T lymphocyte cell line. J. Pharmacol. Exp. Ther. 1999, 289, 251-260). […] The σ2 binding assay was performed by incubating Jurkat cell membranes ([…] protein per tube) with [^3H]-DTG (25 nM) in presence of (+)-pentazocine (1 μM) to saturate σ1 receptors, and a range of concentrations of tested compounds, at room temperature for 1 hour in 5 mM Tris/HCl buffer (pH=7.4). The final assay volume was 0.5 mL. Binding was terminated by rapid filtration through Wathman GF/B filters, which were then washed with 5×1 mL ice-cold NaCl solution and allowed to dry before bound radioactivity was measured using liquid scintillation counting. Nonspecific binding was determined, in both assays, under similar conditions, but in presence of 10 μM unlabeled haloperidol. Inhibition constants (Ki) were calculated from the IC50 values according to the method of Cheng and Prusoff (Cheng, Y.; Prusoff, W. H. Relationship between the inhibition constant (Ki) and the concentration of inhibitor which causes 50 percent inhibition (IC50) of an enzymatic reaction. Biochem Pharmacol. 1973, 22 (23), 3099-108): […]

Assay [2] relates to SJL/J mice. As to the kind of experiment: EAE model, preventive treatment. Type of assay: in vivo. As to conditions: single i.p. injection on day 0, 0.5 or 1 mg/kg; FIG. 3. An excerpt:
Animals. SJL/J mice were purchased from Janvier (Le Genest-St-Isle, France) and bred under conventional barrier protection at the Pasteur Institute (Lille, France). All experiment protocols and procedures were in compliance with the European Communities Council Directives of 24 Nov. 1986 (86/609/EEC) and were approved by the local ethical committee (CEEA 102009R). Efforts were made to minimize the number of animals used and their suffering. Animals that reached severe hind limb paresis (clinical grade 3) were isolated, and hydration and food access were facilitated.
EAE induction and treatment. The method of EAE induction was similar to previously published methods (Lee-Chang et al., Immunol Lett. 2011 Mar. 30; 135(1-2):108-17). […]
Body weight and clinical signs of EAE were monitored daily. The severity of clinical symptoms was scored based on a standard neurological scoring system for EAE, as follows: grade 0, no disease; grade 1, moderate tail hypotonia and/or slight clumsy gait; grade 2, tail atony and/or clumsy gait; grade 3, severe hind limb paresis; grade 4, paraplegia; grade 5, tetraplegia. […]

The target in assay [3] is σ1 receptors (Homo sapiens (Human), UniProt Q99720). As to the kind of experiment: σ1 binding assay, Jurkat cell membranes, [3H](+)-pentazocine. As to conditions: hydrochloride salts; mean of 2 or 3 independent experiments; Ki from IC50 (Cheng-Prusoff); read-out: Sigma 1 Ki.
Chain of σ1 receptors (Q99720 whole entry): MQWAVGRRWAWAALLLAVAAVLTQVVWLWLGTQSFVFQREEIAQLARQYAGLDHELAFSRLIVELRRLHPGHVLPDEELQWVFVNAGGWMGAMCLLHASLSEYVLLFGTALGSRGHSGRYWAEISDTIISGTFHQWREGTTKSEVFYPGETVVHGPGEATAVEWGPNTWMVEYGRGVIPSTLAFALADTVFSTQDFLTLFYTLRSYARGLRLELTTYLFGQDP

Chain of σ2 receptors (Q5BJF2 whole entry): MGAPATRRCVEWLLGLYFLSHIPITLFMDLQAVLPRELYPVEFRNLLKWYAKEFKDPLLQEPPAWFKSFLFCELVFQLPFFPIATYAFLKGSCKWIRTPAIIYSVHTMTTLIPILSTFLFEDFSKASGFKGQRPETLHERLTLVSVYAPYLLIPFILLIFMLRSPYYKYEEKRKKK

In the case of `CN(CCCNC(=O)c1ccc(Cl)cc1)Cc1ccccc1` [Compound 3.1.10, N-[3-(benzylmethylamino)propyl]-4-chlorobenzamide], the results for the Ki in assay [1] and in assay [3] were 190 nM and 3.2 nM, respectively. The “EAE clinical course, preventive treatment” value in assay [2] is “Amelioration of EAE; also recorded: delaying the onset of EAE”.
